{"source": "patent US5773444A", "about": "“Quinazolines as inhibitors of endothelin converting enzyme” (Warner-Lambert Company, priority 1997, dated 1998)", "key": {"[1]": {"tested_on": "isolated nonischemic and ischemic rat hearts", "details": "cited from earlier work; for IC50: isolated rat hearts, read-out: IC50, reduction of coronary flow; for time to contracture in globally ischemic rat hearts: pretreatment / 10 nMol big ET-1; for preischemic increase in coronary perfusion pressure induced by big ET-1 and its proischemic effect: phosphoramidon 100 μM, BQ-123 0.3 μM"}, "[2]": {"tested_on": "gastric mucosal hemorrhagic change", "details": "50-500 pmol/kg into the left gastric artery; cited from earlier work"}, "behavioral effects": {"tested_on": "behavioral effects", "details": "intracerebroventricular, rats; cited from earlier work"}, "[3]": {"tested_on": "ET-1-induced bronchoconstriction and tracheal smooth muscle contraction", "details": "allergic sheep; cited from earlier work"}, "[4]": {"tested_on": "mouse model of endotoxic shock", "details": "cited from earlier work"}, "[5]": {"tested_on": "models of acute renal ischemia and subarachnoid hemorrhage in rats", "details": "cited from earlier work"}, "[6]": {"target": "T1, endothelin converting enzyme (ECE) (Homo sapiens, UniProt P42892)", "T1 construct": "ECE was partially purified from EA.hy926 grown in 150 roller; endogenous in cells; host or cells: EA.hy926 (human umbilical vein endothelial cells fused with A549); detergent-solubilised membranes, RCA-I lectin eluate", "T1 sequence (P42892 whole entry, the tested form may be a part)": "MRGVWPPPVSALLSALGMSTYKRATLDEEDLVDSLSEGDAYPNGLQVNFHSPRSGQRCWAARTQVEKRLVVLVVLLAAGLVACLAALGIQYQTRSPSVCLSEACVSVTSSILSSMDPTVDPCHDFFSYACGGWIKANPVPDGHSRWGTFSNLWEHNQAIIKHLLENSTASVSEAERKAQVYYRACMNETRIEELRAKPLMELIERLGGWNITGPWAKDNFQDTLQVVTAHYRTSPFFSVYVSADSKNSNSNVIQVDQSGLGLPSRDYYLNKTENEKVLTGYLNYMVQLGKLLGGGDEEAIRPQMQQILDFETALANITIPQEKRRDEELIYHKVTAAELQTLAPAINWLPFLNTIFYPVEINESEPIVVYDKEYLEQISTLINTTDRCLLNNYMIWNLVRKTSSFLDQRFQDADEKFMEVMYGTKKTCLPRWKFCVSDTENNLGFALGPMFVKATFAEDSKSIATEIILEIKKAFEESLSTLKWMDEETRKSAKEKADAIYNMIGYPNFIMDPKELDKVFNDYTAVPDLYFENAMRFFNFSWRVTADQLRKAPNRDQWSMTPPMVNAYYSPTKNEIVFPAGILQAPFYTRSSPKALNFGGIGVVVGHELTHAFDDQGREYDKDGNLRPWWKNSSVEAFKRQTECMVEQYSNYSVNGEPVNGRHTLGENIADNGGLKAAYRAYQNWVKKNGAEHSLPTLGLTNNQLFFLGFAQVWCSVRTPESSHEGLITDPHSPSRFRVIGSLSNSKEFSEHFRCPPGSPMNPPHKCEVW", "assay": "ECE assay (partially purified ECE from EA.hy926, ET-1 production by RIA)", "format": "biochemical", "details": "100 μM thiorphan or 100 nM phosphoramidon"}, "[7]": {"tested_on": "neutral endopeptidase 24.11 (NEP 24.11)", "assay": "NEP 24.11 inhibition under ECE assay conditions", "format": "biochemical, human", "details": "100 μM thiorphan or 100 nM phosphoramidon", "text": "The cell line, EA.hy926, contains neutral endopeptidase 24.11 (NEP 24.11) which also cleaves big ET-1 to ET-1 and c-terminal fragment (manuscript submitted). […] All the data were obtained in the linear range of time-course curves."}, "[8]": {"tested_on": "intracellular conversion of big ET-1 to ET-1", "details": "cultured vascular endothelial cells and smooth muscle cells; cited from earlier work"}, "[9]": {"tested_on": "pressor response of big ET", "details": "micromolar concentrations, in vitro and in vivo; cited from earlier work"}, "[10]": {"tested_on": "vasoconstrictor effects evoked by intravenous injections of big ET-1", "details": "anaesthetized pigs; cited from earlier work"}, "[11]": {"tested_on": "pressor response of big ET-1", "details": "ganglion-blocked anesthetized rats; cited from earlier work"}, "[12]": {"tested_on": "effects of big ET-1 in the microvasculature", "details": "anesthetized hamsters; cited from earlier work"}, "[13]": {"tested_on": "lethality induced by the intravenous infusion of big ET-1", "details": "in vivo; cited from earlier work"}, "[14]": {"tested_on": "caliber of the basilar artery and systemic arterial pressure", "details": "anesthetized dogs, intracisternal big ET-1; cited from earlier work"}, "[15]": {"tested_on": "rats subjected to coronary occlusion and reperfusion", "details": "given IV; cited from earlier work"}, "[16]": {"tested_on": "hemodynamic actions of big ET-1 in rat brain", "details": "cited from earlier work"}, "blood pressure": {"tested_on": "blood pressure", "details": "in vivo; cited from earlier work"}}, "note": "Non-standard residues stand in square brackets, D forms with d. Residues, ends and D or L forms follow the SMILES beside them. No end group written: not given here."}
{"compound": "ET-1: potent vasoconstrictor, is a 21 amino acid bicyclic peptide", "values": [{"measurement": "IC50", "setting": "[1]", "result": 12, "unit": "µM"}, {"measurement": "time to contracture in globally ischemic rat hearts", "setting": "[1]", "result": "significantly reduced the time to contracture"}, {"measurement": "tissue type plasminogen activator release, platelet activating formation and gastric mucosal hemorrhagic change", "setting": "[2]", "result": "increased the tissue type plasminogen activator release and platelet activating formation and induced gastric mucosal hemorrhagic change in a dose-dependent manner"}, {"measurement": "behavioral effects", "setting": "behavioral effects", "result": "evoke behavioral effects"}]}
{"compound": "CC(C)C[C@@H]1NC(=O)[C@@H](C(C)C)NC(=O)[C@@H]2CCCN2C(=O)[C@@H](CC(=O)O)NC(=O)[C@@H](Cc2c[nH]c3ccccc23)NC1=O", "note": "[BQ-123] (cyclo(L[dW][dD]P[dV]))", "values": [{"measurement": "preischemic increase in coronary perfusion pressure induced by big ET-1 and its proischemic effect", "setting": "[1]", "result": "abolished"}, {"measurement": "ET-1-induced bronchoconstriction and tracheal smooth muscle contraction", "setting": "[3]", "result": "block ET-1-induced bronchoconstriction and tracheal smooth muscle contraction"}, {"measurement": "survival rate", "setting": "[4]", "result": "significantly increased the survival rate"}]}
{"compound": "COc1cccc(Oc2c(NS(=O)(=O)c3ccc(C(C)(C)C)cc3)ncnc2OCCO)c1", "note": "[RO 46-2005]", "values": [{"measurement": "efficacy in models of acute renal ischemia and subarachnoid hemorrhage", "setting": "[5]", "result": "effective"}]}
{"compound": "CC(C)C[C@H](NP(=O)(O)O[C@@H]1O[C@@H](C)[C@H](O)[C@@H](O)[C@H]1O)C(=O)N[C@@H](Cc1c[nH]c2ccccc12)C(=O)O", "note": "[phosphoramidon]", "values": [{"measurement": "effect on ECE activity at NEP-blocking concentration", "setting": "[6]", "result": "without affecting the ECE activity"}, {"measurement": "NEP 24.11 inhibition", "setting": "[7]", "result": "completely inhibited"}, {"measurement": "inhibition of intracellular conversion of big ET-1 to ET-1", "setting": "[8]", "result": "inhibit the intracellular conversion of big ET-1 to ET-1"}, {"measurement": "block of pressor response of big ET", "setting": "[9]", "result": "block the pressor response of big ET"}, {"measurement": "effect on plasma ET-1 level", "setting": "[10]", "result": "did not have any effect on the plasma ET-1 level"}, {"measurement": "vasoconstrictor effects evoked by i.v. big ET-1", "setting": "[10]", "result": "inhibit vasoconstrictor effects"}, {"measurement": "block of pressor response of big ET-1", "setting": "[11]", "result": "blocked by phosphoramidon in a dose-dependent manner"}, {"measurement": "effects of big ET-1 in the microvasculature", "setting": "[12]", "result": "inhibit the effects of big ET-1"}, {"measurement": "lethality induced by the intravenous infusion of big ET-1", "setting": "[13]", "result": "suppress the lethality"}, {"measurement": "block of big ET-1 effects on basilar artery caliber and systemic arterial pressure", "setting": "[14]", "result": "These effects were blocked by phosphoramidon"}, {"measurement": "preischemic increase in coronary perfusion pressure induced by big ET-1 and its proischemic effect", "setting": "[1]", "result": "abolished"}, {"measurement": "infarct size 24 hour postischemia", "setting": "[15]", "result": "significantly reduce infarct size"}, {"measurement": "inhibition of hemodynamic actions of big ET-1", "setting": "[16]", "result": "phosphoramidon sensitive inhibition of hemodynamic actions of big ET-1"}]}
{"compound": "big ET-1: 38 (human) or 39 (porcine) amino acid peptide known as big endothelin or proendothelin (CSCSSLMDKECVYFCHLDIIWVNTPEHVVPYGLGSPRS; ends and bridges not checked; cysteine pairing not given here; UniProt P05305 53-90, looked up)", "values": [{"measurement": "IC50", "setting": "[1]", "result": 0.002, "unit": "µM"}, {"measurement": "time to contracture in globally ischemic rat hearts", "setting": "[1]", "result": "significantly reduced the time to contracture"}, {"measurement": "potency at raising blood pressure relative to ET-1", "setting": "blood pressure", "result": "equally potent in vivo"}]}
